Source: US20150157634A1, “METHODS OF TREATING AND PREVENTING ALLOANTIBODY DRIVEN CHRONIC GRAFT VERSUS HOST DISEASE” (PHARMACYCLICS, INC., priority 2013, published 2015)

Legend:
[1] = Weekly body weight of cGVHD mice; format: in vivo, mouse; conditions: BM, BM+S vehicle and BM+S ibrutinib groups; FIG. 3
Procedure: FIG. 3 exemplifies body weight of cGVHD mice in C57BL/6→B10.BR model. Bodyweight measurements for bone marrow (BM) non-cGVHD mice, BM+splenocyte (S) engrafted cGVHD irrelevant vehicle treated mice, or Ibrutinib treated BM+S engrafted mice.
(§1) Therapeutic allo-HSCT model: The C57BL/6→B10.BR model has been described previously (Srinivasan, M. et al. Blood 119, 1570-1580 (2012)). In brief, B10.BR recipients conditioned with 120 mg/kg/day I.P. cyclophosphamide (Cy) on days −3 and −2 and 8.3 Gy TBI (using a ^137Cesium irradiator) on day −1 were engrafted with 1×10^7 Thy1.2 depleted C57BL/6 derived bone marrow (BM) cells with (or without) 1×10^6 allogeneic splenocytes.
(§2) Therapeutic administration of ibrutinib via drinking water was conducted as previously described (Dubovsky 2013). Mice received a dose equivalent to 15 mg/Kg/day in 0.4% methylcellulose by intraperitoneal injection starting day 28 post-transplant for the C57BL/6→B10.BR model. Cyclosporine A was administered I.P. in 0.2% CMC at 10 mg/kg/day starting at day 25 for 2-weeks followed by 3× weekly (Blazar, B. R. et al. Blood 92, 3949-3959 (1998)).

[2] = tested on: C57BL/6→B10.BR cGVHD model; assay: Masson trichrome staining of pulmonary collagen deposition / fibrosis in cGVHD model; format: in vivo, mouse
Procedure: as §1, §2
Masson Trichrome staining: 6 μm cryosections were fixed for 5 minutes in acetone and stained with hematoxylin and eosin to determine pathology and with the Masson's trichrome staining kit (Sigma) for detection of collagen deposition. Histopathology scores were assigned as described (Blazar, B. R. et al. Blood 92, 3949-3959 (1998)). Collagen deposition was quantified on trichrome stained sections as a ratio of area of blue staining to area of total staining using the Adobe Photoshop CS3 analysis tool.

[3] = tested on: C57BL/6→B10.BR cGVHD model; assay: Overall survival of cGVHD mice (Kaplan Meier); format: in vivo, mouse; conditions: ibrutinib cohort; FIG. 2
Procedure: FIG. 2 exemplifies survival of cGVHD mice in C57BL/6→B10.BR model. Kaplan Meier plot of overall survival for bone marrow (BM) non-cGVHD mice, BM+splenocyte (S) engrafted cGVHD irrelevant vehicle treated mice, or Ibrutinib treated BM+S engrafted mice.
as §1, §2

[4] = tested on: C57BL/6→B10.BR cGVHD model; assay: Pulmonary function tests (PFTs) at day 60 in therapeutic allo-HSCT cGVHD/bronchiolitis obliterans model; format: in vivo, mouse
Procedure: To determine whether ibrutinib could reverse established cGVHD, a murine model of alloantibody driven multi-organ system cGVHD including bronchiolar obliterans (BO) (MHC disparate, C57BL/6→B10.BR) was utilized.
as §1, §2
Pulmonary function tests: Pulmonary function tests (PFTs) were performed on anesthetized mice using whole-body plehysmography with the Flexivent system (SCIREQ).

[5] = tested on: C57BL/6→B10.BR cGVHD model; assay: Germinal center detection in spleen (PNA staining, flow cytometry of GC B-cells); format: in vivo, mouse
Text: (§3) FIG. 4 exemplifies germinal center reactions and pulmonary immunoglobulin deposition are therapeutically abated with administration of ibrutinib. A) Germinal centers were imaged by staining 6 um spleen sections with PNA conjugated to rhodamine. B) Splenocytes were purified from transplanted mice on day 60 and frequency of germinal center B cells were quantified. C) 6 μm lung sections from day 60 transplanted mice were stained with anti-mouse Ig conjugated to FITC. D) quantified with Adobe Photoshop CS3.
as §1
as §2, with “(1998)). […]” for “(1998)).”

[6] = tested on: C57BL/6→B10.BR cGVHD model; assay: Pulmonary immunoglobulin deposition (anti-mouse Ig FITC immunofluorescence of lung sections); format: in vivo; conditions: day 60 post-HSCT
Text: as §3, §1, §2

## C=CC(=O)N1CCC[C@@H](n2nc(-c3ccc(Oc4ccccc4)cc3)c3c(N)ncnc32)C1 [ibrutinib, (R)-1-(3-(4-amino-3-(4-phenoxyphenyl)-1H-pyrazolo[3,4-d]pyrimidin-1-yl)piperidin-1-yl)prop-2-en-1-one]
[1]
  mouse bodyweight, weekly evaluation: little variation between groups
[2]; 4 mice from 3 experiments, representative images, FIG. 1D
  peribronchiolar collagen fibrosis, Masson Trichrome staining of inflated pulmonary tissues: less peribroncheolar collagen fibrosis
[2]; C57BL/6→B10.BR cGVHD model
  lung and liver fibrosis (summary statement): reversed lung and liver fibrosis
[2]; p<0.0001, FIG. 1E
  quantified trichrome staining (pulmonary fibrosis, ratio of blue area to total area): ameliorates pulmonary fibrosis caused by cGVHD
[3]
  survival: 100%
[4]; C57BL/6→B10.BR cGVHD model
  pulmonary function (summary statement): restored pulmonary function
[4]; ibrutinib 15 mg/Kg/day from day 28 post-transplant, PFT day 60, p=0.0019, FIG. 1B
  development of BO as measured by pulmonary elastance: curtailed the development of BO in vivo
[4]; ibrutinib 15 mg/Kg/day from day 28 post-transplant, PFT day 60, p=0.0071, FIG. 1C
  development of BO as measured by pulmonary compliance: curtailed the development of BO in vivo
[4]; ibrutinib 15 mg/Kg/day from day 28 post-transplant, PFT day 60, p=0.0090, FIG. 1A
  development of BO as measured by pulmonary resistance: curtailed the development of BO in vivo
[5]; compared to vehicle treated mice with active cGVHD, FIG. 4A
  GC reactions within the spleen (peanut agglutinin staining): reduced the overall size, cellularity, and number of GC reactions
[5]; day 60 post-HSCT, 8 mice per group, p=0.0222, FIG. 4B
  CD19+GL7+CD38lo germinal center B-cells within the spleen (flow cytometry): significantly inhibited the cGVHD-induced formation germinal center B-cells
[6]; FIG. 4C
  pulmonary deposition of allo-Ig (immunofluorescent microscopy): limited pulmonary deposition of allo-Ig
[6]; p<0.001, FIG. 4D
  quantified immunofluorescent signal of pulmonary Ig deposition: significant and complete ablation of pulmonary Ig deposition
